68 sequences from the supplement of paper PMC11208160 can be followed below.
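Note: IS621 bridge recombinase in Escherichia coli cells against a fixed T5 target plasmid.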

The data set is described as follows: recombinant UMI read abundance after kanamycin selection (control-corrected) (log10(CPM+1)); higher = more efficient recombination; extreme values may be limits of the assay; sequences stand for … in AGTGCAGAGAAAATCGGCCAGTTTTCTCTGCCTGCAGTCCGCATGCCGTGGGACCCCTTGGGTTCTAACCTGTTGCCTAGATTTATGCAGCGGACTGCCTTTCTCCCAAAGTGATAAACCGG…AGGTTGGTTTCACT; site = the 11-nt donor. In a few lines:
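Two replicates each of selected and unselected plating were used in this pooled Escherichia coli screen of donor and donor-binding-loop pairs for the IS621 bridge recombinase. Selection was with IPTG (0.07 mM) and kanamycin. Counts of recombinant UMIs, amplified across the donor–target junction, were converted to CPM, averaged, scaled by control-derived factors and reported as log10(CPM+1).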
With “CGCCGTTCATGGACCGGTTTTCCCGGTAATCCGTATTTGCT (site CGCCGTCCTAG)”, the “recombinant UMI read abundance (log10)” value was 0.00374. “CGCCGTTCATGGACCGGTTTTCCCGGTAATCCGTATTTGCT (site CGCCGTGCTAG)”: the “recombinant UMI read abundance (log10)” value stood at 0. Under “CGCCGTTCATGGACCGGTTTTCCCGGTAATCCGTATTTGCT (site CGCCGTTCTAG)” stands 2.41; under “CGCCTGACATGGACCGGTTTTCCCGGTAATCCGTATTTGAG (site CGCCTGACTCT)”, 0.947. Turning to “CGCGAGTCATGGACCGGTTTTCCCGGTAATCCGTATTTGCC (site CGAGAGTCTGG)”, the “recombinant UMI read abundance (log10)” value came out at 0. In the case of “CGCGAGTCATGGACCGGTTTTCCCGGTAATCCGTATTTGCC (site CGCGAGTCTGG)” it was 2.43; in that of “CGCGAGTCATGGACCGGTTTTCCCGGTAATCCGTATTTGCC (site CGGGAGTCTGG)”, 0; in that of “CGCGAGTCATGGACCGGTTTTCCCGGTAATCCGTATTTGCC (site CGTGAGTCTGG)”, 0.681. Consider “CGCGAGTCATGGACCGGTTTTCCCGGTAATCCGTATTTGTC (site CGCGAGTCTGA)”, for which the “recombinant UMI read abundance (log10)” value came to 2.8. For the sequence “CGCGGGACATGGACCGGTTTTCCCGGTAATCCGTATTTGGC (site CGCGGGACTGC)”, the “recombinant UMI read abundance (log10)” value was determined as 2.25.

“CGCTAGACATGGACCGGTTTTCCCGGTAATCCGTATTTGAG (site CGATAGACTCT)”: the “recombinant UMI read abundance (log10)” value was determined as 0.0154. Regarding “CGCTAGACATGGACCGGTTTTCCCGGTAATCCGTATTTGAG (site CGCTAGACTCT)”, the “recombinant UMI read abundance (log10)” value worked out at 1.64.

Take “CGCTAGACATGGACCGGTTTTCCCGGTAATCCGTATTTGAG (site CGGTAGACTCT)”: the “recombinant UMI read abundance (log10)” value was found to be 0.181. Take “CGCTAGACATGGACCGGTTTTCCCGGTAATCCGTATTTGAG (site CGTTAGACTCT)”: the “recombinant UMI read abundance (log10)” value worked out at 0.00455. In the case of “CGCTCCTCATGGACCGGTTTTCCCGGTAATCCGTATTTGCC (site CACTCCTCTGG)” it was 2.35; in that of “CGCTCCTCATGGACCGGTTTTCCCGGTAATCCGTATTTGCC (site CCCTCCTCTGG)”, 1.72; in that of “CGCTCCTCATGGACCGGTTTTCCCGGTAATCCGTATTTGCC (site CGCTCCTCTGG)”, 3.14. Consider “CGCTCCTCATGGACCGGTTTTCCCGGTAATCCGTATTTGCC (site CTCTCCTCTGG)”, for which the “recombinant UMI read abundance (log10)” value amounted to 2.25. Under “CGCTGTCCATGGACCGGTTTTCCCGGTAATCCGTATTTGCA (site CGCTGTCCTTG)” stands 0.989. Under “CGCTGTGCATGGACCGGTTTTCCCGGTAATCCGTATTTGCA (site CGCTGTGCTTG)” stands 1.87; under “CGGAACACATGGACCGGTTTTCCCGGTAATCCGTATTTGCA (site AGGAAGACTTG)”, 0.0118; under “CGGAACACATGGACCGGTTTTCCCGGTAATCCGTATTTGCA (site CGGAACACTTG)”, 2.5. Under “CGGAAGACATGGACCGGTTTTCCCGGTAATCCGTATTTGCC (site AGGAAGACTTG)” stands 0; under “CGGAAGACATGGACCGGTTTTCCCGGTAATCCGTATTTGCC (site CGGAAGACTGG)”, 2.59. Consider “CGGAAGCCATGGACCGGTTTTCCCGGTAATCCGTATTTGTC (site CGGAAGCCTGA)”, for which the “recombinant UMI read abundance (log10)” value worked out at 0. In the case of “CGGAAGCCATGGACCGGTTTTCCCGGTAATCCGTATTTGTC (site CGGAATCCTAA)” it was 0.00548; in that of “CGGAATACATGGACCGGTTTTCCCGGTAATCCGTATTTGTT (site CGGAATACTAA)”, 2.18. Under “CGGAATACATGGACCGGTTTTCCCGGTAATCCGTATTTGTT (site CGGAATCCTAA)” stands 0; under “CGGAATACATGGACCGGTTTTCCCGGTAATCCGTATTTGTT (site CGGAATGCTAA)”, 0; under “CGGAATACATGGACCGGTTTTCCCGGTAATCCGTATTTGTT (site CGGAATTCTAA)”, 0. Under “CGGAATCCATGGACCGGTTTTCCCGGTAATCCGTATTTGTG (site CGGAATCCTAA)” stands 0; under “CGGAATCCATGGACCGGTTTTCCCGGTAATCCGTATTTGTG (site CGGAATCCTCA)”, 0.656; under “CGGAATCCATGGACCGGTTTTCCCGGTAATCCGTATTTGTG (site CGGAATCCTGA)”, 0. On to “CGGAATCCATGGACCGGTTTTCCCGGTAATCCGTATTTGTG (site CGGAATCCTTA)”, for which the “recombinant UMI read abundance (log10)” value came to 0.

In the case of “CGGAATCCATGGACCGGTTTTCCCGGTAATCCGTATTTGTT (site ACGAATCCTAA)”, the “recombinant UMI read abundance (log10)” value was found to be 0.0109. Under “CGGAATCCATGGACCGGTTTTCCCGGTAATCCGTATTTGTT (site AGAAATCCTAA)” stands 0. As to “CGGAATCCATGGACCGGTTTTCCCGGTAATCCGTATTTGTT (site AGGAAACCTAA)”, the “recombinant UMI read abundance (log10)” value came out at 0. For the sequence “CGGAATCCATGGACCGGTTTTCCCGGTAATCCGTATTTGTT (site AGGAATCCTAA)”, the “recombinant UMI read abundance (log10)” value is 0. “CGGAATCCATGGACCGGTTTTCCCGGTAATCCGTATTTGTT (site AGGAATCCTAG)”: the “recombinant UMI read abundance (log10)” value is 0. Under “CGGAATCCATGGACCGGTTTTCCCGGTAATCCGTATTTGTT (site AGGAATCCTTA)” stands 0. “CGGAATCCATGGACCGGTTTTCCCGGTAATCCGTATTTGTT (site AGGAATTCTAA)”: the “recombinant UMI read abundance (log10)” value came out at 0.

On to “CGGAATCCATGGACCGGTTTTCCCGGTAATCCGTATTTGTT (site AGGATTCCTAA)”, for which the “recombinant UMI read abundance (log10)” value came to 0. With “CGGAATCCATGGACCGGTTTTCCCGGTAATCCGTATTTGTT (site AGGGATCCTAA)”, the “recombinant UMI read abundance (log10)” value came out at 0.0088. Under “CGGAATCCATGGACCGGTTTTCCCGGTAATCCGTATTTGTT (site CAGAAGCCTAA)” stands 0.0058; under “CGGAATCCATGGACCGGTTTTCCCGGTAATCCGTATTTGTT (site CAGAATACTAA)”, 0. Under “CGGAATCCATGGACCGGTTTTCCCGGTAATCCGTATTTGTT (site CAGAATCCTAA)” stands 0. Under “CGGAATCCATGGACCGGTTTTCCCGGTAATCCGTATTTGTT (site CAGAATCCTAT)” stands 0; under “CGGAATCCATGGACCGGTTTTCCCGGTAATCCGTATTTGTT (site CAGAATCCTGA)”, 0; under “CGGAATCCATGGACCGGTTTTCCCGGTAATCCGTATTTGTT (site CAGAGTCCTAA)”, 0.0165. Turning to “CGGAATCCATGGACCGGTTTTCCCGGTAATCCGTATTTGTT (site CAGTATCCTAA)”, the “recombinant UMI read abundance (log10)” value was 0.0125. Turning to “CGGAATCCATGGACCGGTTTTCCCGGTAATCCGTATTTGTT (site CATAATCCTAA)”, the “recombinant UMI read abundance (log10)” value is 0.

Regarding “CGGAATCCATGGACCGGTTTTCCCGGTAATCCGTATTTGTT (site CCAAATCCTAA)”, the “recombinant UMI read abundance (log10)” value was determined as 0.

For “CGGAATCCATGGACCGGTTTTCCCGGTAATCCGTATTTGTT (site CCGAAACCTAA)”, the “recombinant UMI read abundance (log10)” value was 0.0076.

Turning to “CGGAATCCATGGACCGGTTTTCCCGGTAATCCGTATTTGTT (site CCGAATCCTAA)”, the “recombinant UMI read abundance (log10)” value is 0.00308. With “CGGAATCCATGGACCGGTTTTCCCGGTAATCCGTATTTGTT (site CCGAATCCTAG)”, the “recombinant UMI read abundance (log10)” value came to 0. On to “CGGAATCCATGGACCGGTTTTCCCGGTAATCCGTATTTGTT (site CCGAATCCTTA)”, for which the “recombinant UMI read abundance (log10)” value came to 0. Under “CGGAATCCATGGACCGGTTTTCCCGGTAATCCGTATTTGTT (site CCGAATTCTAA)” stands 0. In the case of “CGGAATCCATGGACCGGTTTTCCCGGTAATCCGTATTTGTT (site CCGATTCCTAA)” it was 0.00402. Take “CGGAATCCATGGACCGGTTTTCCCGGTAATCCGTATTTGTT (site CCGGATCCTAA)”: the “recombinant UMI read abundance (log10)” value worked out at 0. In the case of “CGGAATCCATGGACCGGTTTTCCCGGTAATCCGTATTTGTT (site CGAAAACCTAA)” it was 0; in that of “CGGAATCCATGGACCGGTTTTCCCGGTAATCCGTATTTGTT (site CGAAATCCTAA)”, 0; in that of “CGGAATCCATGGACCGGTTTTCCCGGTAATCCGTATTTGTT (site CGAAATCCTAG)”, 0. In the case of “CGGAATCCATGGACCGGTTTTCCCGGTAATCCGTATTTGTT (site CGAAATCCTTA)” it was 0.014; in that of “CGGAATCCATGGACCGGTTTTCCCGGTAATCCGTATTTGTT (site CGAAATTCTAA)”, 0. Regarding “CGGAATCCATGGACCGGTTTTCCCGGTAATCCGTATTTGTT (site CGAATTCCTAA)”, the “recombinant UMI read abundance (log10)” value came out at 0. In the case of “CGGAATCCATGGACCGGTTTTCCCGGTAATCCGTATTTGTT (site CGAGATCCTAA)” it was 0; in that of “CGGAATCCATGGACCGGTTTTCCCGGTAATCCGTATTTGTT (site CGCAACCCTAA)”, 0.00816; in that of “CGGAATCCATGGACCGGTTTTCCCGGTAATCCGTATTTGTT (site CGCAATCCTAA)”, 0.00384.
